From US10227362B2 (priority 2015, dated 2019) come the findings set out here.

Molecules are shown by their SMILES. ≈ marks a conversion by molar mass, not a printed value.

What all share (assay type): cell-based
The subject of test [1] is Mycobacterium bovis BCG strain TMC1019 (ATCC35737). In words: microbe, parasite or virus in culture. The following applies: Mycobacterium tuberculosis variant bovis BCG, 24 h, read-out: M. bovis ATCC35737 (ug/mL).
Test [2] concerns Mycobacterium tuberculosis H37Rv strain. The test is described as follows: In vitro MIC against M. tuberculosis H37Rv strain (MABA, Alamar Blue). Here is the method:
Part I: The in vitro efficacy of anti-Mycobacterium tuberculosis compounds was tested using H37Rv strain.
On the day of the test, the compound was dissolved in pure DMSO (Sigma 276855-2L) to a concentration of 10 mg/mL which was used as the mother liquor of the compound. 30 μL of DMSO was added to wells of column 2 to 11 s of the v-bottom 96-well plates (Axygen-wipp02280). 30 μL of the mother liquor of the compound was added to the well of column 2, after mixing, 30 μL was taken from the well of column 2 and added to the well of column 3, and then pipetted and mixed. The operation was taken to column 10. Column 11 was free of medicine and contained only 30 μL of DMSO. This was the “motherplate” of the compound. From column 2 to 11, the corresponding concentration of the compound was 5, 2.5, 1.25, 0.625, 0.3125, 0.156, 0.078, 0.039, 0.02, 0 mg/mL. […] A flat bottom 96-well plate (Greiner 655090) was used as a “daughterplate”. 98 μL of 7H9 (Sigma M0178) medium was added to the wells of all daughterplates. 2 μL of compound was extracted from the motherboard and added to the corresponding daughter plate. Line A and H, column 1 and 12 of the daughterplate contained only 7H9 medium.
The H37Rv strain in the glycerol cryovial was inoculated into 7H9 medium containing 0.05% Tween 80 and cultured for 4 weeks at 37° C. in a shaker with 200 rpm. The bacterial liquid was washed twice with 7H9 medium containing 0.05% Tween 80 and resuspended in the same medium. The absorbance of the bacteria liquid was adjusted to OD550=0.4-0.5 using the same medium. The bacteria liquid was sub-packed in microcentrifuge tubes and stored at −80° C. Storage time was no more than 1 month. On the day of the test, the packaged bacteria liquid would be […]. The bacteria liquid was diluted 20 times and then diluted 50 times with 7H9 medium, and a total of 1000 times dilution. The bacteria liquid would be used to inoculate on the daughterplate. 100 μL of bacterial liquid was inoculated in each well of the daughterboard, 100 μL 7H9 medium was added to column 12 and without bacteria liquid.
The test daughterplate was placed in an incubator at 37° C. and the humidity was maintained at >80%. A week later, 12.5 μL of 7H9 medium containing 20% Tween 80 and 20 μL of Alamar Blue (Invitrogen DAL1100) were added to the well of a column 1 containing bacteria and the well of a column 12 without bacteria every day, and then continue to incubate for 24 hours and observed. When the added Alamar Blue was reduced to pink in 24 hours by the bacteria liquid in the well of column 1, the 7H9 medium containing 20% Tween 80 and Alamar Blue were added to all wells on the test plate and the fluorescence values were measured after incubation for 24 hours at 37° C.
A general note: The colour change of resazurin is a common sign of viable cells or microbes.

A further test has as its system M. tuberculosis H37R. The test is described as follows: M. tuberculosis LORA MIC. The conditions noted are these: Mycobacterium tuberculosis, read-out: M. tuberculosis H37R LORA (MIC) (ug/mL).
A further test relates to Vero Cell. The test is described as follows: Vero cell cytotoxicity. The following applies: Chlorocebus sabaeus, Vero cells.

Regarding `C[C@]1(CN2CCc3nc(-c4ccccc4F)ccc3C2)Cn2cc([N+](=O)[O-])nc2O1` [Compound 5, (S)-2-((2-(2-Fluorophenyl)-7,8-dihydro-1,6-naphthyridin-6(5H)-yl)methyl)-2-methyl-6-nitro-2,3-dihydroimidazo[2,1-b]oxazole], the MIC in test [1] was < 1 µg/mL; in test [2], < 1 µg/mL; in the test with M. tuberculosis H37R it was 1 to 32 µg/mL (≈ 2.44 to 78.2 µM). Also, the concentration for half-maximal inhibition (IC50) (in general, the concentration at which inhibition is half-maximal) in the test with Vero Cell is > 32 µg/mL.

Turning to `C[C@]1(CN2CCc3nc(-c4cccc(F)c4)ccc3C2)Cn2cc([N+](=O)[O-])nc2O1` [Compound 6, (S)-2-((2-(3-Fluorophenyl)-7,8-dihydro-1,6-naphthyridin-6(5H)-yl)methyl)-2-methyl-6-nitro-2,3-dihydroimidazo[2,1-b]oxazole], the MIC in test [1] was < 1 µg/mL; in test [2], < 1 µg/mL; with M. tuberculosis H37R, 1 to 32 µg/mL (≈ 2.44 to 78.2 µM). In addition, in the test on Vero Cell, the concentration for half-maximal inhibition (IC50) was > 32 µg/mL.

Turning to `C[C@]1(CN2CCc3nc(-c4ccc(F)c(F)c4)ccc3C2)Cn2cc([N+](=O)[O-])nc2O1` [Compound 12, (S)-2-((2-(3,4-Difluorophenyl)-7,8-dihydro-1,6-naphthyridin-6(5H)-yl)methyl)-2-methyl-6-nitro-2,3-dihydroimidazo[2,1-b]oxazole], the MIC in test [1] was < 1 µg/mL; in test [2], < 1 µg/mL; with M. tuberculosis H37R it was 1 to 32 µg/mL (≈ 2.34 to 74.9 µM). In the test on Vero Cell, the IC50 was > 32 µg/mL.

Take `C[C@]1(CN2CCc3nc(-c4ccc(F)cc4F)ccc3C2)Cn2cc([N+](=O)[O-])nc2O1` [Compound 13, (S)-2-((2-(2,4-Difluorophenyl)-7,8-dihydro-1,6-naphthyridin-6(5H)-yl)methyl)-2-methyl-6-nitro-2,3-dihydroimidazo[2,1-b]oxazole]: the MIC in test [1] was < 1 µg/mL; in test [2] it was < 1 µg/mL; with M. tuberculosis H37R, 1 to 32 µg/mL (≈ 2.34 to 74.9 µM). For the same molecule, the IC50 with Vero Cell was > 32 µg/mL.

With `C[C@]1(CN2Cc3nc(-c4cccc(F)c4)sc3C2)Cn2cc([N+](=O)[O-])nc2O1` [Compound 70, (S)-2-((2-(3-Fluorophenyl)-4H-pyrrolo[3,4-d]thiazol-5(6H)-yl)methyl)-2-methyl-6-nitro-2,3-dihydroimidazo[2,1-b]oxazole], the MIC in test [1] and in test [2] was < 1 µg/mL in each case. The IC50 with Vero Cell is > 32 µg/mL.

In the case of `C[C@]1(CN2Cc3nc(-c4ccc(F)c(F)c4)sc3C2)Cn2cc([N+](=O)[O-])nc2O1` [Compound 71, (S)-2-((2-(3,4-Difluorophenyl)-4H-pyrrolo[3,4-d]thiazol-5(6H)-yl)methyl)-2-methyl-6-nitro-2,3-dihydroimidazo[2,1-b]oxazole], the MIC in test [1] and in test [2] was < 1 µg/mL each time. Also, the concentration for half-maximal inhibition (IC50) in the test with Vero Cell is > 32 µg/mL.

Turning to `C[C@]1(CN2Cc3nc(-c4ccc(F)cc4Cl)sc3C2)Cn2cc([N+](=O)[O-])nc2O1` [Compound 77, (S)-2-((2-(2-chloro-4-fluorophenyl)-4H-pyrrolo[3,4-d]thiazol-5(6H)-yl)methyl)-2-methyl-6-nitro-2,3-dihydroimidazo[2,1-b]oxazole], the MIC in test [1] and in test [2] was < 1 µg/mL each time. The half-inhibitory concentration (IC50) in the test with Vero Cell is > 32 µg/mL.

On to `C[C@]1(CN2Cc3nc(-c4ccc(F)cc4F)sc3C2)Cn2cc([N+](=O)[O-])nc2O1` [Compound 78, (S)-2-((2-(2,4-Difluorophenyl)-4H-pyrrolo[3,4-d]thiazol-5(6H)-yl)methyl)-2-methyl-6-nitro-2,3-dihydroimidazo[2,1-b]oxazole], for which the MIC in test [1] and in test [2] was < 1 µg/mL each time. Moreover, the IC50 in the test on Vero Cell was > 32 µg/mL.

As to `CN(c1ccc(F)cc1)c1nc2c(s1)CN(C[C@@]1(C)Cn3cc([N+](=O)[O-])nc3O1)C2` [Compound 85, (S)—N-(4-Fluorophenyl)-N-methyl-5-((2-methyl-6-nitro-2,3-dihydroimidazo[2,1-b]oxazol-2-yl)methyl)-5,6-dihydro-4H-pyrrolo[3,4-d]thiazol-2-amine], the MIC in test [1] and in test [2] was < 1 µg/mL throughout. Further, the half-inhibitory concentration (IC50) in the test on Vero Cell is > 32 µg/mL.
